Reference: US6407103B2, “Indeno [1,2-c] pyrazol-4-ones and their uses” (Bristol-Myers Squibb Pharma Company, priority 1998, dated 2002)
Structures can show the parent of a compound that is named as a salt.

SMILES	melting point [°C]
CC(C)(C)OC(=O)NC1CCC(C(=O)N2CCC(c3[nH]nc4c3C(=O)c3c(NC(=O)NN5CCOCC5)cccc3-4)CC2)CC1 (stereo not shown) (as salt: TFA) [Example CCLXXXV, 3-(1-(4-(t-butoxycarbonylamino)cyclohexylcarbonyl)piperidin-4-yl)-5-(morpholinocarbamoylamino)indeno[1,2-c]pyrazol-4-one]	210
O=C(Nc1cccc2c1C(=O)c1c-2n[nH]c1C1CCN(C(=O)C2CCCNC2)CC1)NN1CCOCC1 (stereo not shown) (as salt: TFA) [Example CCLXXXVII, 3-(1-(piperidin-3-ylcarbonyl)piperidin-4-yl)-5-(morpholinocarbamoylamino)indeno[1,2-c]pyrazol-4-one]	169
CN1CCCC(C(=O)N2CCC(c3[nH]nc4c3C(=O)c3c(NC(=O)NN5CCOCC5)cccc3-4)CC2)C1 (stereo not shown) (as salt: TFA) [Example CCLXXXVIII, 3-(1-(1-methylpiperidin-3-ylcarbonyl)piperidin-4-yl)-5-(morpholinocarbamoylamino)indeno[1,2-c]pyrazol-4-one]	158
COC[C@H]1CCCN1NC(=O)Nc1cccc2c1C(=O)c1c-2n[nH]c1-c1ccc(C(=O)N2CCN(C(=O)OC(C)(C)C)CC2)s1 (as salt: TFA) [Example CCV, 3-(5-(4-(t-butoxycarbonyl)piperazinocarbonyl)-2-thienyl)-5-(2(R)-(methoxymethyl)pyrrolidinocarbamoylamino)indeno[1,2-c]pyrazol-4-one]	> 300
NC1CCCC(C(=O)N2CCC(c3[nH]nc4c3C(=O)c3c(NC(=O)NN5CCOCC5)cccc3-4)CC2)C1 (stereo not shown) (as salt: TFA) [Example CCXC, 3-(1-(3-aminocyclohexylcarbonyl)piperidin-4-yl)-5-(morpholinocarbamoylamino)indeno[1,2-c]pyrazol-4-one]	201
CN(C)C1CCCC(C(=O)N2CCC(c3[nH]nc4c3C(=O)c3c(NC(=O)NN5CCOCC5)cccc3-4)CC2)C1 (stereo not shown) (as salt: TFA) [Example CCXCI, 3-(1-(3-(dimethylamino)cyclohexylcarbonyl)piperidin-4-yl)-5-(morpholinocarbamoylamino)indeno[1,2-c]pyrazol-4-one]	153
CO[C@H]1CC[C@H](C(=O)N2CCC(c3[nH]nc4c3C(=O)c3c(NC(=O)NN5CCOCC5)cccc3-4)CC2)CC1 (as salt: TFA) [Example CCXCII, 3-(1-(trans-4-methoxycyclohexylcarbonyl)piperidin-4-yl)-5-(morpholinocarbamoylamino)indeno[1,2-c]pyrazol-4-one]	246
CO[C@H]1CC[C@@H](C(=O)N2CCC(c3[nH]nc4c3C(=O)c3c(NC(=O)NN5CCOCC5)cccc3-4)CC2)CC1 (as salt: TFA) [Example CCXCIII, 3-(1-(cis-4-methoxycyclohexylcarbonyl)piperidin-4-yl)-5-(morpholinocarbamoylamino)indeno[1,2-c]pyrazol-4-one]	178
Nc1ccc(CC(=O)N2CCC(c3[nH]nc4c3C(=O)c3c(NC(=O)NN5CCOCC5)cccc3-4)CC2)cc1 (as salt: TFA) [Example CCXCIV, 3-(1-(4-aminobenzylcarbonyl)piperidin-4-yl)-5-(morpholinocarbamoylamino)indeno[1,2-c]pyrazol-4-one]	177
CN(C)c1ccc(CC(=O)N2CCC(c3[nH]nc4c3C(=O)c3c(NC(=O)NN5CCOCC5)cccc3-4)CC2)cc1 (as salt: TFA) [Example CCXCV, 3-(1-(4-(dimethylamino)benzylcarbonyl)piperidin-4-yl)-5-(morpholinocarbamoylamino)indeno[1,2-c]pyrazol-4-one]	107
Nc1ccc(C(=O)N2CCC(c3[nH]nc4c3C(=O)c3c(NC(=O)NN5CCOCC5)cccc3-4)CC2)cc1 (as salt: TFA) [Example CCXCVII, 3-(1-(4-aminophenylcarbonyl)piperidin-4-yl)-5-(morpholinocarbamoylamino)indeno[1,2-c]pyrazol-4-one]	198
CN(C)c1ccc(C(=O)N2CCC(c3[nH]nc4c3C(=O)c3c(NC(=O)NN5CCOCC5)cccc3-4)CC2)cc1 (as salt: TFA) [Example CCXCVIII, 3-(1-(4-(dimethylamino)phenylcarbonyl)piperidin-4-yl)-5-(morpholinocarbamoylamino)indeno[1,2-c]pyrazol-4-one]	189
O=C(Nc1cccc2c1C(=O)c1c-2n[nH]c1-c1ccc(N2CCNCC2)cc1)NN1CCOCC1 (as salt: TFA) [Example CCXI, 3-(4-piperazinophenyl)-5-(morpholinocarbamoylamino)indeno[1,2-c]pyrazol-4-one]	263
NC(=O)Nc1cccc2c1C(=O)c1c-2n[nH]c1-c1ccc(N2CCNCC2)cc1 (as salt: TFA) [Example CCXII, 3-(4-piperazinophenyl)-5-(carbamoylamino)indeno[1,2-c]pyrazol-4-one]	257
NNC(=O)Nc1cccc2c1C(=O)c1c-2n[nH]c1-c1ccc(N2CCNCC2)cc1 (as salt: TFA) [Example CCXIII, 3-(4-piperazinophenyl)-5-(aminocarbamoylamino)indeno[1,2-c]pyrazol-4-one]	257
CN(C)CC(=O)Nc1cccc2c1C(=O)c1c-2n[nH]c1-c1ccc(N2CCNCC2)cc1 (as salt: TFA) [Example CCXIV, 3-(4-piperazinophenyl)-5-((N,N-dimethylamino)acetamido)indeno[1,2-c]pyrazol-4-one]	243

SMILES	melting point [°C]
CCN1CCN(c2ccc(-c3[nH]nc4c3C(=O)c3c(NC(=O)NN5CCOCC5)cccc3-4)cc2)CC1 (as salt: TFA) [Example CCXIX, 3-(4-(4-ethylpiperazino)phenyl)-5-(morpholinocarbamoylamino)indeno[1,2-c]pyrazol-4-one]	245
CN(C)C1CCN(c2ccc(-c3[nH]nc4c3C(=O)c3c(NC(=O)NN5CCOCC5)cccc3-4)cc2)CC1 (as salt: TFA) [Example CCXLVIII, 3-(4-(4-(N,N-dimethylamino)piperidino)phenyl)-5-(morpholinocarbamoylamino)indeno[1,2-c]pyrazol-4-one]	258
O=C(CN1CCOCC1)Nc1cccc2c1C(=O)c1c-2n[nH]c1-c1ccc(N2CCNCC2)cc1 (as salt: TFA) [Example CCXV, 3-(4-piperazinophenyl)-5-(morpholinoacetamido)indeno[1,2-c]pyrazol-4-one]	259
NCC1CCN(CC(=O)Nc2cccc3c2C(=O)c2c-3n[nH]c2-c2ccc(N3CCNCC3)cc2)CC1 (as salt: TFA) [Example CCXVII, 3-(4-piperazinophenyl)-5-(4-(aminomethyl)piperidinoacetamido)indeno[1,2-c]pyrazol-4-one]	239
CN1CCN(c2ccc(-c3[nH]nc4c3C(=O)c3c(NC(=O)NN5CCOCC5)cccc3-4)cc2)CC1 (as salt: TFA) [Example CCXVIII, 3-(4-(4-methylpiperazino)phenyl)-5-(morpholinocarbamoylamino)indeno[1,2-c]pyrazol-4-one]	245
CC(C)N1CCN(c2ccc(-c3[nH]nc4c3C(=O)c3c(NC(=O)NN5CCOCC5)cccc3-4)cc2)CC1 (as salt: TFA) [Example CCXX, 3-(4-(4-isopropylpiperazino)phenyl)-5-(morpholinocarbamoylamino)indeno[1,2-c]pyrazol-4-one]	253
CN(C)NC(=O)Nc1cccc2c1C(=O)c1c-2n[nH]c1-c1ccc(N2CCNCC2)cc1 (as salt: TFA) [Example CCXXI, 3-(4-piperazinophenyl)-5-((N,N-dimethylamino)carbamoylamino)indeno[1,2-c]pyrazol-4-one]	238
CN1CCN(c2ccc(-c3[nH]nc4c3C(=O)c3c(NC(=O)NN(C)C)cccc3-4)cc2)CC1 (as salt: TFA) [Example CCXXII, 3-(4-(4-methylpiperazino)phenyl)-5-((N,N-dimethylamino)carbamoylamino)indeno[1,2-c]pyrazol-4-one]	192
CN1CCN(NC(=O)Nc2cccc3c2C(=O)c2c-3n[nH]c2-c2ccc(N3CCNCC3)cc2)CC1 (as salt: TFA) [Example CCXXIII, 3-(4-piperazinophenyl)-5-((4-methylpiperazino)carbamoylamino)indeno[1,2-c]pyrazol-4-one]	254
CN1CCN(NC(=O)Nc2cccc3c2C(=O)c2c-3n[nH]c2-c2ccc(N3CCN(C)CC3)cc2)CC1 (as salt: TFA) [Example CCXXIV, 3-(4-(4-methylpiperazino)phenyl)-5-((4-methylpiperazino)carbamoylamino)indeno[1,2-c]pyrazol-4-one]	293
CC(C)N1CCN(c2ccc(-c3[nH]nc4c3C(=O)c3c(NC(=O)NN5CCN(C)CC5)cccc3-4)cc2)CC1 (as salt: TFA) [Example CCXXVI, 3-(4-(4-isopropylpiperazino)phenyl)-5-((4-methylpiperazino)carbamoylamino)indeno[1,2-c]pyrazol-4-one]	272
CC1CCCC(C)N1NC(=O)Nc1cccc2c1C(=O)c1c-2n[nH]c1-c1ccc(N2CCNCC2)cc1 (stereo not shown) (as salt: TFA) [Example CCXXVII, 3-(4-piperazinophenyl)-5-((2,6-dimethylpiperidino)carbamoylamino)indeno[1,2-c]pyrazol-4-one]	270
O=C(Nc1cccc2c1C(=O)c1c-2n[nH]c1-c1ccc(N2CCNCC2)cc1)NN1CCN(CCO)CC1 (as salt: TFA) [Example CCXXVIII, 3-(4-piperazinophenyl)-5-((4-(2-hydroxyethyl)piperazino)carbamoylamino)indeno[1,2-c]pyrazol-4-one]	279
COC(C)(C)[C@H]1CCCN1NC(=O)Nc1cccc2c1C(=O)c1c-2n[nH]c1-c1ccc(N2CCNCC2)cc1 (as salt: TFA) [Example CCXXXI, 3-(4-piperazinophenyl)-5-((2(R)-(1-methoxy-1-methylethyl)pyrrolidino)carbamoylamino)indeno[1,2-c]pyrazol-4-one]	221
COC(C)(C)[C@@H]1CCCN1NC(=O)Nc1cccc2c1C(=O)c1c-2n[nH]c1-c1ccc(N2CCNCC2)cc1 (as salt: TFA) [Example CCXXXII, 3-(4-piperazinophenyl)-5-((2(S)-(1-methoxy-1-methylethyl)pyrrolidino)carbamoylamino)indeno[1,2-c]pyrazol-4-one]	218
